Results published in patent US7300930B2, “Therapeutic acridone and acridine compounds” (Cancer Research Technology Limited, priority 2000, dated 2007).
pIC50: −log10 of the molar value.

Legend:
telomerase = telomerase (Homo sapiens, UniProt O14746); assay: Modified telomeric repeat amplification protocol (TRAP) assay, cell-free; assay type: biochemical; details: extracts from A2780 cells, tested as salts, read-out: telIC50 (Telomerase Inhibitory Activity)
Protocol: The ability of compounds to inhibit telomerase in a cell-free assay was assessed with a modified TRAP assay using extracts from exponentially growing A2780 human ovarian carcinoma cells. The TRAP assay was performed in 2 steps: (a) telomerase-mediated extension of the forward primer (TS: 5′-AATCCGTCGAGCAGAGTT (SEQ ID NO:3), Oswel Ltd., Southampton, UK) contained in a 40 µL reaction mix comprising TRAP buffer (20 mM Tris-HCl (pH 8.3), 68 mM KCl, 1.5 mM MgCl2, 1 mM EGTA, 0.05% v/v Tween 20), 0.05 μg bovine serum albumin, 50 μM of each deoxynucleotide triphosphate, 0.1 μg TS primer, and 3 μCi of [α-^32P]dCTP (Amersham plc, UK). Protein (40 ng or 20 ng) was then incubated with the reaction mix+agent (acid addition and quaternary dimethiodide salts) at final concentrations of up to 50 μM for 20 min at 25° C. A lysis buffer (no protein) control, heat-inactivated protein control, and 50% protein (20 ng or 10 ng) control were included in each assay; and (b) while heating at 80° C. in a PCR block of a thermal cycler (Hybaid, UK) for 5 min to inactivate telomerase activity, 0.1 μg of reverse CX primer (3′-[…]-5′ (SEQ ID NO:4)) and 2 Units of Taq DNA polymerase (“red hot”, Advanced Biotechnologies) were added. A 3-step PCR was then performed: 94° C. for 30 s, 50° C. for 30 s, and 72° C. for 1 min for 31 cycles. Telomerase-extended PCR products in the presence or absence of compounds were then determined either by electrophoretic separation using 8% w/w acrylamide denaturing gels and analysis by phosphorimaging or autoradiography, or by harvesting on Whatman filters (25 mm glass microfibre) and analysis by liquid scintillation counting.

[1] = Growth inhibition, sulforhodamine B (SRB) assay, SKOV-3; assay type: cell-based; details: human, SKOV-3 ovarian carcinoma cells, SKOV-3, 96 hr incubation, tested as salts, read-out: Cytotoxicity - IC50 SKOV-3
Protocol: (§1) Growth inhibition was measured in three human ovarian carcinoma cell lines (A2780, CH1, and SKOV-3) and one human cervix carcinoma cell line (A431) using the sulforhodamine B (SRB) assay. Briefly, between 3000 and 6000 cells were seeded into the wells of 96-well microtiter plates and allowed to attach overnight. Compounds (acid addition and quaternary dimethiodide salts) were dissolved at 500 μM in water and immediately added to wells in quadruplicate at final concentrations of 0.05, 0.25, 1, 5 and 25 μM. Following an incubation period of 96 hr, remaining cells were fixed with ice-cold 10% w/v trichloroacetic acid (30 min) and stained with 0.4% SRB in 1% v/v acetic acid (15 min). Mean absorbance at 540 nm for each drug concentration was expressed as a percentage of the control untreated well absorbance, and IC50 values (concentration required to inhibit cell growth by 50%) were determined for each agent.

[2] = Growth inhibition, sulforhodamine B (SRB) assay, A2780; assay type: cell-based; details: human, A2780 ovarian carcinoma cells, A2780, 96 hr incubation, tested as salts, read-out: Cytotoxicity - IC50 A2780
Protocol: as §1

[3] = Growth inhibition, sulforhodamine B (SRB) assay, A431; assay type: cell-based; details: human, A431 cervix carcinoma cells, A431, 96 hr incubation, tested as salts, read-out: Cytotoxicity - IC50 A431
Protocol: as §1

[4] = Growth inhibition, sulforhodamine B (SRB) assay, CH1; assay type: cell-based; details: human, CH1 ovarian carcinoma cells, CH1, 96 hr incubation, tested as salts, read-out: Cytotoxicity - IC50 CH1
Protocol: as §1

telomerase, sequence (O14746 whole entry): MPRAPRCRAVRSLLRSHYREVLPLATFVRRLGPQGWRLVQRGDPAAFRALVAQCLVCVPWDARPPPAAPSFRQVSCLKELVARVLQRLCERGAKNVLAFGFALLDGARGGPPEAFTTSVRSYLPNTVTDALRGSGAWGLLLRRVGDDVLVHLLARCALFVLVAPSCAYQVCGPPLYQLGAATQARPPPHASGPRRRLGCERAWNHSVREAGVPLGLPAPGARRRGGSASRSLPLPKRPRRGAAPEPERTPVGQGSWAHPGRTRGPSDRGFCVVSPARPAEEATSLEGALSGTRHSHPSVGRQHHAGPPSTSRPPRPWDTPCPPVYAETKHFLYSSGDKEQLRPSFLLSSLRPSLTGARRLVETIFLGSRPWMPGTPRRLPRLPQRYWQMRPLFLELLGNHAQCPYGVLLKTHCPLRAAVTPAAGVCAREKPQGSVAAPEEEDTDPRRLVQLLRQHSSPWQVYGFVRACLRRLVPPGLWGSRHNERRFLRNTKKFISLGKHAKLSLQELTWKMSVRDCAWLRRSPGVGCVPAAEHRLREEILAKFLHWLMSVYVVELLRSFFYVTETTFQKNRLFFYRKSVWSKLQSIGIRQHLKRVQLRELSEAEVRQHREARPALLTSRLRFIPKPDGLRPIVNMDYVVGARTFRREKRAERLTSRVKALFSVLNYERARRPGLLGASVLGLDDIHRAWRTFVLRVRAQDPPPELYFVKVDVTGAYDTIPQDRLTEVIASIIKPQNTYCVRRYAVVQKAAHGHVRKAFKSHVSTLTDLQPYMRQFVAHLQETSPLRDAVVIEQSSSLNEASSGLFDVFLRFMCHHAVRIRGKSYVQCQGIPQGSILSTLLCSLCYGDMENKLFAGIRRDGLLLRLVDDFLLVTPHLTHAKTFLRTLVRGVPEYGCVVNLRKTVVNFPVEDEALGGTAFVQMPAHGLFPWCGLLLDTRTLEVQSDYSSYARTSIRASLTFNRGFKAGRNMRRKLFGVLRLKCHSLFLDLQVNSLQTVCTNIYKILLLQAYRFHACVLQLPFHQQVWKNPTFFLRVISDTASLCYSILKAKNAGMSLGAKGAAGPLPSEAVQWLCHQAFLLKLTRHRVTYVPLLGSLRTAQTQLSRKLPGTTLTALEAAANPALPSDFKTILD

Row | Compound | pIC50 (telomerase) | IC50 at 96 h [1] | IC50 at 96 h [2] | IC50 at 96 h [3] | IC50 at 96 h [4]
1 | CC(=O)c1ccc(Nc2c3ccc(NC(=O)CCN4CCCC4)cc3nc3cc(NC(=O)CCN4CCCC4)ccc23)cc1 [JH-ACI-90, N-[9-(4′-Acetylphenylamino)]-3,6-bis(3-pyrrolidinopropionamido)acridine] | 7.40 | 3400 nM | 3200 nM | 2200 nM | 1800 nM
2 | CN(C)c1ccc(Nc2c3ccc(NC(=O)CCN4CC5(C)CC4CC(C)(C)C5)cc3nc3cc(NC(=O)CCN4CC5(C)CC4CC(C)(C)C5)ccc23)cc1 [JH-ACI-103, N-{9-[4′-(N,N-Dimethylamino)phenylamino]}-3,6-bis[(1,3,3-trimethyl-6-azabicyclo[3.2.1]-octanamino)propionamido]-acridine] | 6.85 | 2000 nM | 1000 nM | 2500 nM | 3200 nM
3 | CN1CCN(CCC(=O)Nc2ccc3[nH]c4ccc(NC(=O)CCN5CCN(C)CC5)cc4c(=O)c3c2)CC1 [JH-ACO-28, 2,7-Bis[3-(4′-N-methyl)piperizinopropionamido]-9(10H)-acridone] | 6.18 | > 25000 nM | > 25000 nM | > 25000 nM | > 25000 nM
4 | CC1(C)CC2CC(C)(CN2CCC(=O)Nc2ccc3c(=O)c4ccc(NC(=O)CCN5CC6(C)CC5CC(C)(C)C6)cc4[nH]c3c2)C1 [JH-ACO-32, 3,6-Bis[(1,3,3-trimethyl-6-azabicyclo[3.2.1]-octanamino)propionamido]-9(10H)-acridone] | 5.75 | 2500 nM | 1900 nM | 10000 nM | 2500 nM
5 | O=C(CCN1CCCC1)Nc1ccc2c(NC3CC3)c3ccc(NC(=O)CCN4CCCC4)cc3nc2c1 [JM-ACI-14, N-[9-(Cyclopropylamino)]-3,6-bis(3-pyrrolidinopropionamido)acridine] | 7.30 | > 25000 nM | 19000 nM | > 25000 nM | > 25000 nM
6 | O=C(CCN1CCC(O)CC1)Nc1ccc2nc3ccc(NC(=O)CCN4CCC(O)CC4)cc3c(O)c2c1 [JM-ACO-09, 2,7-Bis[3-(4-hydroxypiperidino)propionamido]-9(10H)-acridone] | 5.80 | > 25000 nM | > 25000 nM | > 25000 nM | > 25000 nM

More lines, in order of rising pIC50 (telomerase), values ahead:

Row | pIC50 (telomerase) | Compound | IC50 at 96 h [1] | IC50 at 96 h [2] | IC50 at 96 h [3] | IC50 at 96 h [4]
7 | 5.71 | CC1CCCCN1CCC(=O)Nc1ccc2nc3ccc(NC(=O)CCN4CCCCC4C)cc3c(O)c2c1 (centres unmarked) [JM-ACO-07, 2,7-Bis[3-(2-methylpiperidino)propionamido]-9(10H)-acridone] | > 25000 nM | > 25000 nM | > 25000 nM | > 25000 nM
8 | 5.72 | CN(C)CCC(=O)Nc1ccc2nc3ccc(NC(=O)CCN(C)C)cc3c(O)c2c1 [JH-ACO-22, 2,7-Bis(3-dimethylaminopropionamido)-9(10H)-acridone] | > 25000 nM | > 25000 nM | > 25000 nM | > 25000 nM
9 | 6.80 | CC1(C)CC2CC(C)(CN2CCC(=O)Nc2ccc3c(Nc4ccc(N)cc4)c4ccc(NC(=O)CCN5CC6(C)CC5CC(C)(C)C6)cc4nc3c2)C1 [JH-ACI-101, N-{9-[4′-(Amino)phenylamino]}-3,6-bis[(1,3,3-trimethyl-6-azabicyclo[3.2.1]-octanamino)propionamido]-acridine] | 1200 nM | 1600 nM | 2500 nM | 2300 nM
10 | 7.10 | Nc1ccc(Nc2c3ccc(NC(=O)CCN4CCCC4)cc3nc3ccc(NC(=O)CCN4CCCC4)cc23)cc1 [JH-ACI-105, N-{9-[4′-(Amino)phenylamino]}-2,6-bis(3-pyrrolidinopropionamido)acridine] | > 25000 nM | > 25000 nM | > 25000 nM | 15800 nM
